According to US20220218664A1, “DRUG AND METHOD FOR TREATING OR PREVENTING COMPLICATIONS FROM DIABETES, USING SAID DRUG” (TMS Co., Ltd., priority 2019, published 2022):

Assays:
[1] = tested on: streptozotocin-induced diabetic mice; test: Blood glucose level (BS) in streptozotocin-induced diabetic mice; assay type: in vivo, C57BL/6J male mice; conditions: 30 mg/kg i.p. once a day
Procedure: 9-week-old C57BL/6J male mice were purchased and familiarized with an animal facility for 1 week. 200 mg/kg of streptozotocin (streptozotocin; STZ) was administered […] into the peritoneal cavity of 10-week-old mice to prepare streptozotocin-induced diabetic mice (hereinafter also referred to as “STZ administration week 0”). One week after the administration of streptozotocin, blood was collected from the tail vein of the mice, and the blood glucose level (BS) was measured using an automatic blood glucose measuring device (product name: Medisafe (trademark) Mini GR-102, made by Terumo (Co)). Mice having a blood glucose level of 400 mg/dL or more were determined to be diabetic mice.
The SMTP-44D groups, the edaravone group, and the pregabalin group were administered SMTP-44D (0.3 mg/kg, 3 mg/kg, or 30 mg/kg doses, respectively), edaravone (10 mg/kg dose), or pregabalin (10 mg/kg dose) into the peritoneal cavity once a day for 3 consecutive weeks from the day following the first week to the fourth week after STZ administration.
For the above-mentioned STZ group, SMTP-44D groups, edaravone group, pregabalin group, and control group mice, the following measurements were conducted every week from the 0th week, which began on the day when streptozotocin (STZ) was administered, to the 4th week (that is, a total of five times). As algesia tests, the following von Frey test and hot plate test were conducted, and hind plantar blood flow, body weight (BW), and blood glucose level (BS) were measured using the above-mentioned automatic blood glucose measure device. Note, for example, the 0th week represents the 0th day. That is, the measurements were conducted on the 0th, 7th, 14th, 21st, and 28th days.

[2] = Body weight in diabetic nephropathy model mice; assay type: in vivo, Male db/db mice; conditions: 30 mg/kg i.p. once every two days for 10 weeks; 16 weeks old
[3] = tested on: diabetic nephropathy model mice; test: Blood glucose level in diabetic nephropathy model mice; assay type: in vivo, Male db/db mice; conditions: 30 mg/kg i.p. once every two days for 10 weeks; 16 weeks old
[4] = tested on: diabetic nephropathy model mice; test: Urine volume (24 h, metabolic cage); assay type: in vivo, Male db/db mice; conditions: 16 weeks old, 24 h urine
[5] = tested on: diabetic nephropathy model mice; test: Tubular regeneration score (HE-stained kidney); assay type: in vivo, Male db/db mice; conditions: 16 weeks old, score 0 to 4
[6] = tested on: diabetic nephropathy model mice; test: Urinary albumin; conditions: 30 mg/kg i.p. once every two days for 10 weeks; 16 weeks old
[7] = tested on: diabetic nephropathy model mice; test: Serum creatinine; conditions: 16 weeks old
[8] = 30 mg/kg i.p. once every two days for 10 weeks
[9] = 300 mg/kg orally once every two days for 10 weeks

Q: Which results are given for `CC(C)=CCC/C(C)=C/CCC1(C)Oc2c(c(O)cc3c2CN([C@H](Cc2ccccc2)C(=O)O)C3=O)CC1O` (some centres unmarked) [SMTP-4D]?
A: BS (blood glucose level) ([1]; 0th week (before dosing)): 203.5 ± 5.5 mg/dL; BS (blood glucose level) ([1]; 1st week (before dosing)): 535.5 ± 28.7 mg/dL; BS (blood glucose level) ([1]; 2nd week): 597.3 ± 44.8 mg/dL; BS (blood glucose level) ([1]; 3rd week): 638.7 ± 34.2 mg/dL; BS (blood glucose level) ([1]; 4th week): 580.3 ± 42.9 mg/dL

Q: Which “Body weight compared to the DN group” value [2] does the source give for `CC(C)=CCC/C(C)=C/CCC1(C)Oc2c(c(O)cc3c2CN(c2cc(C(=O)O)ccc2O)C3=O)CC1O` (centres unmarked) [SMTP-27] here?
A: The value was “No significant changes”.

Q: And the “Blood glucose levels compared to the DN group” value [3]?
A: The value was “No significant changes”.

Q: And the Urine volume [4, 8]?
A: Its Urine volume is 1659.2 ± 270.2 µL.

Q: What about the Tubular regeneration score [5, 8] of the same compound?
A: The Tubular regeneration score was 0.0±0.0 pts.

Q: And the Urinary albumin [6]?
A: The Urinary albumin was 0.3 ± 0.1 mg/h/kg.

Q: And the Serum creatinine [7, 8]?
A: The Serum creatinine was 0.4 ± 0.1 mg/dL.

Q: Which results are given for `CN(C)C(=N)N=C(N)N` [metformin]?
A: Urine volume [4, 9]: 1678.3 ± 250.4 µL; Tubular regeneration score [5, 9]: 0.5±0.2 pts; Serum creatinine [7, 9]: 0.6 ± 0.0 mg/dL
